Where two headings read alike, the source gives them in different places. A value given as a limit tells only on which side of the number the result lay.

The target in one data set is T1, CYP2A6 (Homo sapiens, UniProt P11509).
T1 sequence (P11509 1-494): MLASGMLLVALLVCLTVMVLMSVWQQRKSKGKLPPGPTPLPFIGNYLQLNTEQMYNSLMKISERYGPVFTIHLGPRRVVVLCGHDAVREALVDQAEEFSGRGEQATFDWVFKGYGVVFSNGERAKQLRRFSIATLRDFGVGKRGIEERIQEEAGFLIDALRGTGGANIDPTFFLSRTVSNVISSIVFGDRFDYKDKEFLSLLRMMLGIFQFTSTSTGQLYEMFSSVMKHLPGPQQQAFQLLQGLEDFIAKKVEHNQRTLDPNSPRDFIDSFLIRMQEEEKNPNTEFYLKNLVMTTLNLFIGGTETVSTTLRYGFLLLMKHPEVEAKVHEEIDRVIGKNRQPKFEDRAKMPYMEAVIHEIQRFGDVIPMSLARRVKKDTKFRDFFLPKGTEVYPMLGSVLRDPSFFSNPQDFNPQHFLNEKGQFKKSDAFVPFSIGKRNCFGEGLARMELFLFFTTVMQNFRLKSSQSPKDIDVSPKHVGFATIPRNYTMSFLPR
Kind of data set: Direct CYP inhibition assay using pooled HLM.

In the next data set the target is T2, CYP2C8 (Homo sapiens, UniProt P10632).
T2 sequence (P10632 1-490): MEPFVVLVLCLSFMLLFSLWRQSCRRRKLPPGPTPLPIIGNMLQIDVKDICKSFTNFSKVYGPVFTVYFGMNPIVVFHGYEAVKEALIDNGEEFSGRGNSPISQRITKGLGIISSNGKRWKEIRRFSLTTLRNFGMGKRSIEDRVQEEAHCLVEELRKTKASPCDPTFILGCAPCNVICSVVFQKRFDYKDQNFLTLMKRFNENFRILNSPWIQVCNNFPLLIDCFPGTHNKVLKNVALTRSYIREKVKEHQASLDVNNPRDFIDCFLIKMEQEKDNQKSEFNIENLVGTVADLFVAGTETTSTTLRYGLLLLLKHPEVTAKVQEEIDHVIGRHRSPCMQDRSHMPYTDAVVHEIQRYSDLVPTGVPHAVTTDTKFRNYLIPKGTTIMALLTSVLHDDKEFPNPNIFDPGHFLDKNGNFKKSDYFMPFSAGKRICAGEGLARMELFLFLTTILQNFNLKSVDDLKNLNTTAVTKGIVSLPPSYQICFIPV
Kind of data set: Direct CYP inhibition assay using pooled HLM.

The target of the next data set is CYP2E1 (Homo sapiens, UniProt P05181). Kind of data set: Direct CYP inhibition assay using pooled HLM.
CYP2E1, sequence (P05181 whole entry): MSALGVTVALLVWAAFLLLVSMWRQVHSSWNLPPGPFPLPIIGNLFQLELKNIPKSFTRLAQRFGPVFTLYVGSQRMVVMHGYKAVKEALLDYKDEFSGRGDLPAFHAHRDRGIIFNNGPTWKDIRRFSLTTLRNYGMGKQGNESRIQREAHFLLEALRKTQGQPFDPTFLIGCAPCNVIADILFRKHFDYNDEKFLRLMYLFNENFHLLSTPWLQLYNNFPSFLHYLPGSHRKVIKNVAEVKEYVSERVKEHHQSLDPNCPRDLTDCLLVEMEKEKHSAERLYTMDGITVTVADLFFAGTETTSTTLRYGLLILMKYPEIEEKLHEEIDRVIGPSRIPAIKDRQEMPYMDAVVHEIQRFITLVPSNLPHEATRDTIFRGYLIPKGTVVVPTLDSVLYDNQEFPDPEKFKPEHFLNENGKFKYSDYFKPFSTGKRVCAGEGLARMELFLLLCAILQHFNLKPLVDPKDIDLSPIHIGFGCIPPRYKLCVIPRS
Another data set concerns the target CYP2C19 (Homo sapiens, UniProt P33261). The data set is described as follows: Direct CYP inhibition assay using pooled HLM.
The target of data set [1] is T3, CYP2D6 (Homo sapiens, UniProt P10635). Kind of data set: Direct CYP inhibition assay using pooled HLM.
T3 sequence (P10635 whole entry): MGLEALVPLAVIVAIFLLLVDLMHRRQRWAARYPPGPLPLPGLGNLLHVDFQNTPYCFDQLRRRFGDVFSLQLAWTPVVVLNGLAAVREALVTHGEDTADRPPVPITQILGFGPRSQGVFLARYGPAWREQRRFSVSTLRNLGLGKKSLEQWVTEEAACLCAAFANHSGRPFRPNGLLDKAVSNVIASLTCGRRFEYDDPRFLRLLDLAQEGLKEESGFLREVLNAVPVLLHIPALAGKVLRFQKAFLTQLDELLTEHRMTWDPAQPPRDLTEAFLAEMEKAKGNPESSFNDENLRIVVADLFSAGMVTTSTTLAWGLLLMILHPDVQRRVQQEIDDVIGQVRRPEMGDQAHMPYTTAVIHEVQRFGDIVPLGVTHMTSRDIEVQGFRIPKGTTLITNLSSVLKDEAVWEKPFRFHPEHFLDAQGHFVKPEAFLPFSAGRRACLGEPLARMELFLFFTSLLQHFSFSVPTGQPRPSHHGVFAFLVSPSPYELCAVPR
Procedure: (§1) The enzyme reactions were initiated by adding NADPH (1 mM), and the mixtures were incubated at 37 °C for 5 min in a shaking water bath (100 rpm). The reaction was terminated by adding ice-cold acetonitrile (ACN) containing CBZ (100 nM) and 4-methyl-umbelliferone (300 nM) as internal standards (IS).
(§2) The chromatographic separation was performed on an Agilent 1200 series HPLC system (Agilent Technologies, Santa Clara, CA, USA) equipped with an Atlantis^TM dC18 column (2.1 × 50 mm, 3 µm; Waters Corporation, Milford, MA, USA) with a SecuityGuard^TM C18 guard column (2.0 × 4.0 mm; Phenomenex, Torrance, CA, USA). The mobile phases consisted of double-deionized water (DDW) containing 0.1% (v/v) of formic acid (A) and ACN containing 0.1% (v/v) formic acid (B). […] The sample injection volume was 10 µL, and the total run time was 9.0 min. The column and auto-sampler compartments were maintained at 30 °C and 10 °C, respectively, throughout the analysis. The detection was performed using an API4000 Q-TRAP system equipped with a Turbo V Ion Spray^TM source (Applied Biosystems, Foster City, CA, USA). The operating conditions were optimized as follows: ionization voltage: 5500 V for positive-ion mode and −4500 V for negative-ion mode; ion source temperature: 550 °C; nebulizing gas flow: 50 L/min; auxiliary gas flow: 40 L/min; and curtain gas flow: 30 L/min. The samples were analyzed via multiple reaction monitoring (MRM) mode. […] The data acquisition and processing were performed using Analyst^TM software (version 1.5.2; Applied Biosystems, Foster City, CA, USA).
Another data set has as its target T4, CYP1A2 (Homo sapiens, UniProt P05177).
T4 sequence (P05177 1-516): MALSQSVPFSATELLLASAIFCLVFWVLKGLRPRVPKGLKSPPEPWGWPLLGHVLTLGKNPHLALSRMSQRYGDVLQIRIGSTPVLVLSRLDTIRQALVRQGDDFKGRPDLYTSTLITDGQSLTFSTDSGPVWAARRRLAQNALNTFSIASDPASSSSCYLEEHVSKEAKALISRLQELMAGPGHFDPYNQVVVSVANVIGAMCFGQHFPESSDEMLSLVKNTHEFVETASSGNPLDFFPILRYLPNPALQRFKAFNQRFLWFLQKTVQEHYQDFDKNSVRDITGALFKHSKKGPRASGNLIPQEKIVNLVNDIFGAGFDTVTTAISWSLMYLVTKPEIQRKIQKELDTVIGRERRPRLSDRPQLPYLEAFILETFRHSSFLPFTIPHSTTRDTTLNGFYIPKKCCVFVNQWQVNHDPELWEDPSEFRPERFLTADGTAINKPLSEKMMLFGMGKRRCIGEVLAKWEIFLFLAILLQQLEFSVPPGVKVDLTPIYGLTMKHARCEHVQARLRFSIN
The data set is described as follows: Direct CYP inhibition assay using pooled HLM.

The target of another data set is CYP3A4 (Homo sapiens, UniProt P08684). The data set is described as follows: Direct CYP inhibition assay using pooled HLM. To be noted: for IC50: direct inhibition, 95% confidence intervals in parentheses.
CYP3A4, sequence (P08684 whole entry): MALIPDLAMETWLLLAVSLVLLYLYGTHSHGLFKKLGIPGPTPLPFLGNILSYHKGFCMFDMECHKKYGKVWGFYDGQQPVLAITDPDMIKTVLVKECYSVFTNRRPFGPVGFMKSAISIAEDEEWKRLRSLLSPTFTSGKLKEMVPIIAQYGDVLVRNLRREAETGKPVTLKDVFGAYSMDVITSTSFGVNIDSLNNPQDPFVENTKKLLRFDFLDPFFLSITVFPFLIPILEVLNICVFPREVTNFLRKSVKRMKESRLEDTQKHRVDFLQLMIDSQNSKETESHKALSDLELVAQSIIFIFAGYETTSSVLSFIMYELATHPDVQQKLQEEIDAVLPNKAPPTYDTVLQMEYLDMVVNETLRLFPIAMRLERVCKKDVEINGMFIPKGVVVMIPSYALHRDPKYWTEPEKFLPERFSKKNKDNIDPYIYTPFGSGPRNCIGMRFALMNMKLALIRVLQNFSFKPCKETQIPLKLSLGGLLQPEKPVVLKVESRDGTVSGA
The target of the next data set is CYP2C9 (Homo sapiens, UniProt P11712). Kind of data set: Direct CYP inhibition assay using pooled HLM.
CYP2C9, sequence (P11712 whole entry): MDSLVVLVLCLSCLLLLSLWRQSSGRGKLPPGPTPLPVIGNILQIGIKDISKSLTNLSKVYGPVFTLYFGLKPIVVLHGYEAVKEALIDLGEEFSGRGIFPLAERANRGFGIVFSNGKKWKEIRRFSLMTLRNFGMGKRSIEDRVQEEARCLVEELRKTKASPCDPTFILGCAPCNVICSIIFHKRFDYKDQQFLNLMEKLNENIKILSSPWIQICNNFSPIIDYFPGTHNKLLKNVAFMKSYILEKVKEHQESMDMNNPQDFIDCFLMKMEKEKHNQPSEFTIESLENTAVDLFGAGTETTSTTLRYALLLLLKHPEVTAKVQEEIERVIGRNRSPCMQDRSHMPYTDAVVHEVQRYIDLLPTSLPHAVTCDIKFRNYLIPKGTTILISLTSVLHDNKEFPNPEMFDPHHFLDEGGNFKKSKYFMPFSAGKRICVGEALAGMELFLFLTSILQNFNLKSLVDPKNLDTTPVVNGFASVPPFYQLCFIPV
Data set [2] relates to CYP enzymes (range over all CYP enzymes tested). Kind of data set: Direct CYP inhibition assay using pooled HLM, all CYP enzymes tested. Type of data set: in vitro ADME, human. To be noted: human, pooled human liver microsomes, pH 7.4, read-out: IC50 values, range over all CYP enzymes tested (pan-CYP inhibitory activities).
Procedure: as §1
The chromatographic separation was performed on an Agilent 1200 series HPLC system (Agilent Technologies, Santa Clara, CA, USA) equipped with an Atlantis^TM dC18 column (2.1 × 50 mm, 3 µm; Waters Corporation, Milford, MA, USA) with a SecuityGuard^TM C18 guard column (2.0 × 4.0 mm; Phenomenex, Torrance, CA, USA). The mobile phases consisted of double-deionized water (DDW) containing 0.1% (v/v) of formic acid (A) and ACN containing 0.1% (v/v) formic acid (B). […] The sample injection volume was 10 µL, and the total run time was 9.0 min. The column and auto-sampler compartments were maintained at 30 °C and 10 °C, respectively, throughout the analysis. The detection was performed using an API4000 Q-TRAP system equipped with a Turbo V Ion Spray^TM source (Applied Biosystems, Foster City, CA, USA). […] The samples were analyzed via multiple reaction monitoring (MRM) mode. […]
A short description of data set [3]: Metabolic stability and metabolite formation of BBR in pooled HLM. To be noted: BBR 1 µM in pooled HLM with NADPH-generating system, mean ± SD.
Procedure: To evaluate NADPH-dependent metabolism, BBR (1 µM) was incubated with pooled HLM (1 mg/mL) in the presence of the NADPH-regenerating system (1 mM of NADP^+, 5 mM of G6P, and 1 U/mL of G6PDH) to be a final volume of 200 µL. The reactions were quenched by adding the same volume of ice-cold ACN containing CBZ (100 nM) at 0, 7.5, 15, 30, 60, and 120 min of incubation. The incubation mixtures were centrifuged at 1000× g for 20 min at 4 °C, and the supernatants were analyzed by the LC-MS/MS system described in Section 2.2.
Meanwhile, to identify the known metabolites of BBR, an aliquot (5 µL) of the supernatant was injected into an accurate-MS system consisting of an Agilent 6530 Q-TOF LC/MS equipped with dual AJS ESI ion source (Agilent Technologies) and Agilent 1200 series HPLC system (Agilent Technologies). Chromatographic separations were performed on an Agilent Eclipse Plus C18 column (150 × 2.1 mm, 3.5 µm; Agilent Technologies) by gradient elution with a binary mobile phase consisting of DDW with 0.1% (v/v) formic acid (A) and ACN with 0.1% (v/v) formic acid (B) at a flow rate of 0.2 mL/min, where the mobile phase B was set as follows: 2% at 0 min, 20% at 15 min, and 30% at 20–25 min, followed by re-equilibration for 3 min.
In vitro metabolic stability parameters, including half-life (t1/2) and microsomal intrinsic clearance (CLint,mic), were determined according to our previous report [32]. The degradation t1/2 values of the microsomal stability studies were calculated using the following Equation (2):(2) t1/2=0.693/k, where k represents the first-order degradation rate constant. The k values were estimated by fitting a one-phase exponential decay model to the parent drug remaining (%) vs. incubation time plots using GraphPad Prism 5.0 (GraphPad Software Inc., San Diego, CA, USA).
The CLint,mic was determined using the in vitro half-life approach.
The next data set deals with T5, CYP2B6 (Homo sapiens, UniProt P20813).
T5 sequence (P20813 1-491): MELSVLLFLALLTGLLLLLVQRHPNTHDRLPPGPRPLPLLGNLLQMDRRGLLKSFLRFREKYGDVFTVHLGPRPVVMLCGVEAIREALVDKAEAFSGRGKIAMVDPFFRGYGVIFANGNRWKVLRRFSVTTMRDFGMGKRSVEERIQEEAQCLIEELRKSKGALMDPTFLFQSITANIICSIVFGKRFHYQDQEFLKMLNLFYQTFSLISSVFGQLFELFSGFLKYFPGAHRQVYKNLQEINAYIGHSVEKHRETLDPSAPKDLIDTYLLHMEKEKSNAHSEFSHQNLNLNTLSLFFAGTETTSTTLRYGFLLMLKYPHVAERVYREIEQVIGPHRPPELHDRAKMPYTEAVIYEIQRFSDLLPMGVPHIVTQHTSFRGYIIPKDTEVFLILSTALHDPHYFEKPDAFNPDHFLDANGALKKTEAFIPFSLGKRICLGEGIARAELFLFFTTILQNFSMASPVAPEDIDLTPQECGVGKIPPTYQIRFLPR
The data set is described as follows: Direct CYP inhibition assay using pooled HLM.

Data set [4] is classed as in vitro ADME, human. To be noted: human, 1 µM. How it is done: Table 3. Putative M1 metabolite produced in pooled HLM incubated with thalifendine or
Precursor molecules Incubation time (min)a M1 signal at m/z 310 (103 × cps)b
Demethyleneberberine 0 107 ± 3
a Thalifendine or demethyleneberberine (1 μM) was incubated with pooled HLM in the presence of
NADPH-generating system; b Each value represents the mean ± SD for three separate samples. […]

Data set [5] addresses T3, CYP2D6. Kind of data set: Metabolism-dependent CYP2D6 inhibition assay (IC50 shift) using pooled HLM. The note with it: for MDI (metabolism-dependent inhibition) of CYP2D6 (in words): pre-incubation with NADPH.
Procedure: Pre-incubation was performed in pooled HLM (0.2 mg/mL) added with BBR, THB, TFD, or DMB, or rhCYP2D6 (10 pmol/mL) added with BBR, with or without NADPH (1 mM) in phosphate buffer (0.1 M; pH 7.4) for 30 min. Then, the CYP2D6 substrate (5 µM of dextromethorphan) and NADPH (1 mM) were added to the mixture and incubated for another 10 min. All incubations were carried out at 37 °C in a shaking water bath (100 rpm) using eight-well tube strips placed in an 8 × 12 rack, where the final volume of each reaction mixture was 200 µL. […] The enzyme reactions were quenched by adding an aliquot (200 µL) of ice-cold ACN containing CBZ (100 nM) as an IS. The samples were centrifuged, and the concentration of CYP2D6 metabolite (i.e., dextrorphan, produced by O-demethylation of dextromethorphan) in supernatants were analyzed using the LC-MS/MS method described in Section 2.2.
Where [6] appears, read: IC50 CYP3A4 (MDZ), substrate MDZ.
[7] abbreviates: IC50 CYP3A4 (TST), substrate TST.

CYP2C19, sequence (P33261 whole entry): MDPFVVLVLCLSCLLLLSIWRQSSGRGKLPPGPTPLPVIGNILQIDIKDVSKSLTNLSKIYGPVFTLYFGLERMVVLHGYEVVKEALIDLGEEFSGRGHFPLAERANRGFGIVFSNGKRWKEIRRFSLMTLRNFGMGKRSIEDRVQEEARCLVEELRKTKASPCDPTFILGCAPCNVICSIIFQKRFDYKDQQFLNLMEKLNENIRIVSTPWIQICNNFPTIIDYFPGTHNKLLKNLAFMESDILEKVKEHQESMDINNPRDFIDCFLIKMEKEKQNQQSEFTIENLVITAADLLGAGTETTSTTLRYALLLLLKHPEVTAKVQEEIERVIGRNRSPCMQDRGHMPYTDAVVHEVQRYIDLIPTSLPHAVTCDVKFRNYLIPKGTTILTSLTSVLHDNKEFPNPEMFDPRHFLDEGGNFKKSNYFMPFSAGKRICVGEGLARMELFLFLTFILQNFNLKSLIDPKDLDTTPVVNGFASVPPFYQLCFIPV
Procedure for CYP1A2: as §1, §2
Procedure for CYP2A6: as §1, §2
Procedure for CYP2B6: as §1, §2
Procedure for CYP2C19: as §1, §2
Procedure for CYP2C8: as §1, §2
Procedure for CYP2C9: as §1, §2
Procedure for CYP2E1: as §1, §2
Procedure for CYP3A4: as §1, §2

On to `COc1ccc2cc3[n+](cc2c1O)CCc1cc2c(cc1-3)OCO2` [BRB, berberrubine], for which the 50% inhibitory concentration (IC50) against CYP2A6 was determined as 17 µM; on CYP2C8, 72 µM; against CYP2E1, 34 µM; against CYP2C19, 49 µM; on CYP2D6 [1] it was 45 µM; against CYP1A2 it was 51 µM. In addition, the half-maximal inhibitory concentration (IC50) on CYP3A4 (setting [6]) was determined as 28 µM; on CYP3A4 (setting [7]) it was 45 µM; against CYP2C9 it was 57 µM; at CYP2B6, 96 µM. Also, the half-maximal inhibitory concentration (IC50) at 5 min in data set [2] lay within 17 to 96 µM. The “Concentration in incubation mixture (elimination of BBR and formation of its metabolites)” value (shortened to “Concentration in incubation mixture”) came to 5.4 ± 0.1 nM in [3] (0 min); 5.6 ± 0.0 nM in data set [3] (7.5 min); 5.8 ± 0.1 nM in [3] (15 min); 6.0 ± 0.1 nM in [3] (30 min); 6.1 ± 0.0 nM in [3] (60 min); 6.2 ± 0.0 nM in [3] (120 min).
Regarding `COc1cc2c(cc1O)CC[n+]1cc3c(OC)c(OC)ccc3cc1-2` [JTZ, jatrorrhizine], the IC50 against CYP2A6 is greater than 100 µM; on CYP2C8, 26 µM; on CYP2E1, 11 µM; against CYP2C19, greater than 100 µM; at CYP2D6 [1] it was 10 µM; against CYP1A2, greater than 100 µM. The IC50 against CYP2C9 and at CYP2B6 was greater than 100 µM each time. For the same compound, the “Concentration in incubation mixture” value in [3] (0 min) amounted to 10.4 ± 0.3 nM; in [3] (7.5 min), 10.7 ± 0.1 nM; in data set [3] (15 min), 10.9 ± 0.3 nM; in [3] (30 min), 10.5 ± 0.3 nM; in [3] (60 min), 10.0 ± 0.2 nM; in data set [3] (120 min), 9.6 ± 0.2 nM.
As to `COc1c(O)ccc2cc3[n+](cc12)CCc1cc2c(cc1-3)OCO2` [TFD, thalifendine], the “M1 signal at m/z 310” value is 6 ± 1 103 × cps in data set [4] (0 min) and 2200 ± 125 103 × cps in [4] (30 min). Also, the IC50 against CYP2A6 is greater than 100 µM; on CYP2C8, greater than 100 µM; on CYP2E1, 32 µM; on CYP2C19 it was greater than 100 µM; at CYP2D6 [1], 28 µM; at CYP1A2, greater than 100 µM. For the same compound, the IC50 is greater than 100 µM on CYP3A4 (setting [6]); greater than 100 µM at CYP3A4 (setting [7]); greater than 100 µM against CYP2C9; 6.49 µM on CYP2D6 [5] (IC50 against CYP2D6, pre-incubation with NADPH, pooled HLM, 30 min pre-incubation with NADPH); 20.6 µM on CYP2D6 [5] (IC50 against CYP2D6, pre-incubation without NADPH, pooled HLM, 30 min pre-incubation without NADPH); greater than 100 µM on CYP2B6. Moreover, the “Concentration in incubation mixture” value is on record as 5.4 ± 0.1 nM in [3] (0 min); 20.9 ± 0.4 nM in data set [3] (7.5 min); 33.3 ± 0.6 nM in [3] (15 min); 44.3 ± 1.0 nM in data set [3] (30 min); 50.4 ± 0.7 nM in data set [3] (60 min); 49.3 ± 1.0 nM in data set [3] (120 min). Besides, the IC50 shift at 10 min on CYP2D6 [5] (human, pooled human liver microsomes, pH 7.4, probe dextromethorphan (5 µM)) stood at 3.2. In addition, the “MDI (metabolism-dependent inhibition) of CYP2D6 (in words)” value on CYP2D6 [5] (pooled HLM) is “exhibited MDI”.
`COc1ccc2c(c1OC)CN1CCc3cc4c(cc3C1C2)OCO4` (stereo not drawn) [THB, tetrahydroberberine]: at CYP2A6 (pooled HLM, up to 100 µM), the “Inhibition of CYP2A6 (in words)” value is given as “not markedly inhibited”. Moreover, at CYP2C8 (pooled HLM, up to 100 µM), the “Inhibition of CYP2C8 (in words)” value is given as “not markedly inhibited”. Besides, the “Inhibition of CYP2E1 (in words)” value at CYP2E1 (pooled HLM, up to 100 µM) is “not markedly inhibited”. For the same compound, the “Inhibition of CYP2C19 (in words)” value on CYP2C19 (pooled HLM, up to 100 µM) is on record as “not markedly inhibited”. Besides, the IC50 stood at 0.97 µM on CYP2D6 [1] (read-out: IC50 CYP2D6, pooled HLM, direct inhibition, substrate dextromethorphan, 95% confidence intervals in parentheses); 0.306 µM on CYP2D6 [5] (read-out: IC50 against CYP2D6, pre-incubation with NADPH, pooled HLM, 30 min pre-incubation with NADPH); 0.661 µM at CYP2D6 [5] (read-out: IC50 against CYP2D6, pre-incubation without NADPH, pooled HLM, 30 min pre-incubation without NADPH). At CYP1A2 (pooled HLM, up to 100 µM), the “Inhibition of CYP1A2 (in words)” value was “not markedly inhibited”. Also, the “Inhibition of CYP3A4 (in words)” value on CYP3A4 (up to 100 µM, substrates MDZ and TST) is reported as “not markedly inhibited”. Moreover, at CYP2C9 (pooled HLM, up to 100 µM), the “Inhibition of CYP2C9 (in words)” value is “not markedly inhibited”. The “MDI (metabolism-dependent inhibition) of CYP2D6 (in words)” value on CYP2D6 [5] (pooled HLM) is “exhibited MDI”. In addition, at CYP2D6 [5] (pooled HLM, pre-incubation with vs without NADPH), the “Fold reduction in IC50 against CYP2D6 (IC50 shift)” value amounted to 2.2 fold. The “Inhibition of CYP2B6 (in words)” value on CYP2B6 (pooled HLM, up to 100 µM) is reported as “not markedly inhibited”.
Turning to demethylene-TFD [M1], the “M1 (m/z = 310) signal formed from BBR” value is 1.3 ± 0.25 1000 × cps in [3] (0 min); 28 ± 0.66 1000 × cps in [3] (7.5 min); 80 ± 0.31 1000 × cps in [3] (15 min); 220 ± 2.6 1000 × cps in data set [3] (30 min); 540 ± 15 1000 × cps in data set [3] (60 min); 1100 ± 26 1000 × cps in data set [3] (120 min).

These data come from publication PMC7600264, “Quasi-Irreversible Inhibition of CYP2D6 by Berberine” (Pharmaceutics, 2020).
